Measured values from US4889953A, “Glycerol derivatives, their production and use” (Takeda Chemical Industries, Ltd., priority 1986, dated 1989).
Read-outs that look alike come from different tables or passages of the source.

What was measured:
Sarcoma 180 cells [1] = assay: Antitumor action, Sarcoma 180 intraperitoneal in ICR mice, life-span and survivors on 60th day (Test Example 6); assay type: in vivo; details: Sarcoma-180, ip, 1440 h; for response vs control in vivo at 0.33 mg: read-out: Life-span prolongation ratio (T/C)
Procedure: (§1) Antitumor action of the compounds of Working Examples
(§2) ICR mice (a group consisting of five mice) were inoculated intraperitoneally with 1×10^5 Sarcoma 180 cells per mouse, and then given intraperitoneally 0.33 mg/mouse of a compound dissolved in physiological saline, three times, i.e. 1 hour, 1 day and 2 days after inoculation. Shown in Table 6 are the life-span prolongation ratio against the untreated control group and the number of survived mice on the 60th day after the initiation of the test.

macrophages = details: even at about 1000 times concentration of that of PAF; cited from earlier work
Sarcoma 180 cells [2] = assay: Antitumor action, Sarcoma 180 subcutaneous in ICR mice, intravenous dosing, tumor proliferation inhibition (Test Example 7); assay type: in vivo; details: 0.3 mg/mouse i.v. 9 times; tumor weight after 21 days
Procedure: as §1
ICR mice (a group consisting of 5 mice) were inoculated subcutaneously with 1×10^5 Sarcoma 180 cells per mouse, and given intravenously 0.3 mg/mouse of a compound of a Working Example dissolved in physiological saline 9 times in total, i.e. 8, 9, 10, 13, 14, 15, 16, 17, and 20 days after inoculation. After 21 days, the tumor tissue was extirpated and the tumor weight was weighed. Shown in Table 7 is tumor proliferation inhibition ratio as compared with the untreated control group.

Sarcoma 180 cells [3] = assay: Antitumor action, Sarcoma 180 intraperitoneal in ICR mice, life-span and survivors on 40th day (Test Example 1); assay type: in vivo; details: 0.33 mg/mouse i.p. three times; for Life-span prolongation ratio (T/C, %): only related to mice found dead
Procedure: Antitumor action of the compounds in Working Examples
as §2, with “inoculation. Reference compound IV, Va or Vb was given to mice under the same conditions.” for “inoculation.”, “1” for “6”, “40th” for “60th”

[4] = system: Platelet aggregation caused by PAF; assay: Inhibition of PAF-induced platelet aggregation in rabbit PRP (Test Example 5); assay type: cell-based; details: Oryctolagus cuniculus, PAF 1×10^-8 M, read-out: inhibition ratio (%) of PAF-induced platelet aggregation; for inhibition at 30 µM: 3 × 10^-5 M; for inhibition at 3 µM: 3 × 10^-6 M; for inhibition at 0.3 µM: 3 × 10^-7 M
Procedure: Blood was collected directly from a male rabbit, using a syringe containing 3.15% of citric acid (at a ratio of 1 part to 9 parts of blood) as an anticoagulant, and centrifuged at 800 rpm for 10 minutes at room temperature to obtain platelet rich plasma (PRP). The remaining blood was centrifuged further at 3000 rpm for 10 minutes to obtain platelet poor plasma (PPP) as the supernatant. By dilution of PRP with PPP, the platelet count was adjusted to about 500,000 cells/μl. After 250 μl of the resulting PRP was stirred at 37° C. for 2 minutes, a certain amount of the test compound was added, and the mixture was stirred for further 2 minutes, and then 1×10^-8 M of PAF was added. Platelet aggregation was measured by using a platelet aggregometer (manufactured by Rika Denki Co. in Japan). The aggregation-inhibiting activity of a test compound was determined from the inhibition ratio against maximal transmittance (maximal aggregation ratio) caused by PAF in the control PRP.

Sarcoma 180 cells [5] = assay: Antitumor action, Sarcoma 180 subcutaneous in ICR mice, intravenous dosing, tumor proliferation inhibition (Test Example 2); assay type: in vivo; details: tumor weight after 21 days
Procedure: (§3) Antitumor action of the compound of Working Example 8
ICR mice (a group consisting of 5 mice) were inoculated subcutaneously with 1×10^6 Sarcoma 180 cells per mouse, and given intravenously 0.03 mg/mouse or 0.3 mg/mouse of the compound of Working Example 8 dissolved in physiological saline 9 times in total, i.e. 8, 9, 10, 13, 14, 15, 16, 17, and 20 days after inoculation. The Reference compound (IV), 0.3 mg/mouse, was given under the same conditions. After 21 days, the tumor tissue was extirpated and the tumor weight was weighed. Shown in Table 2 is tumor proliferation inhibition ratio as compared with the untreated control group.

[6] = system: mouse mammary carcinoma cells MM46; assay: Antitumor action, MM46 intraperitoneal in C3H mice, life-span and survivors on 60th day (Test Example 8); assay type: in vivo; details: for Life-span prolongation ratio (T/C, %): mice found dead only
Text: as §1
C3H mice (a group consisting of 5 mice) were inoculated intraperitoneally with 1×10^4 mouse mammary carcinoma cells MM46 per mouse, […] saline once a day for 4 consecutive days starting from the second day after inoculation. Shown in Table 8 are the life-span prolongation ratio against the untreated control group and the number of survived mice on the 60th day after initiation of the test.

[7] = system: mouse mammary carcinoma cells MM46; assay: Antitumor action, MM46 intraperitoneal in C3H mice, life-span and survivors on 40th day (Test Example 3); assay type: in vivo; details: 0.25 mg/mouse once a day for 4 days
Procedure: as §3
C3H mice (a group consisting of 5 mice) were inoculated intraperitoneally with 1×10^4 mouse mammary carcinoma cells MM46 per mouse, and given 0.25 mg/mouse of the compound of Working Example 8 dissolved in physiological saline once a day for 4 consecutive days starting from the second day after the inoculation. The Reference compound (IV) was given under the same conditions. Shown in Table 3 are the life-span prolongation ratio against the untreated control group and the number of survived mice on the 40th day after initiation of the test.

Sarcoma 180 cells [8] = assay: Antitumor action, Sarcoma 180 subcutaneous in ICR mice, oral dosing (Test Example 9); assay type: in vivo; details: 0.3 mg/mouse orally eight times, after 20 days; for Inhibition ratio (%): against untreated control
Procedure: Antitumor action of the compounds of Working Examples 8 and 24
ICR mice (a group consisting of 5 mice) were inoculated subcutaneously at the dorsolateral area with […] 1×10^6 Sarcoma 180 cells per mouse, and given orally 0.3 mg/mouse of the compound of Example 8 or the compound of Example 24 eight times in total, i.e. 8th, 9th, 10th, 13th, 14th, 15th, 16th, and 17th day after inoculation. After 20 days the tumor tissue was extirpated and the tumor weight was weighed. Shown in Table 9 is tumor proliferation inhibition ratio against the untreated control.

[9] = 0.33 mg/mouse i.p. three times, 60th day, read-out: No. of survivors/No. of mice tested (converted)
[10] = 0.33 mg/mouse i.p. three times, survivors on day 60 not included
[11] = 0.125 mg/mouse once a day for 4 days
[12] = 0.25 mg/mouse once a day for 4 days

Molecule | responders at 0.33 mg (Sarcoma 180 cells [1]; [9]) [%] | response vs control in vivo at 0.33 mg (Sarcoma 180 cells [1]; [10]) [%] | No. of survivors/No. of mice tested (Sarcoma 180 cells [3]) | Life-span prolongation ratio (T/C, %) (Sarcoma 180 cells [3]) [%] | inhibition at 30 µM [4] [%] | inhibition at 3 µM [4] [%] | other results
COC(COCCOCC[N+](C)(C)C)COCCC(C)CCCC(C)CCCC(C)CCCC(C)C (stereo not shown) [Example 59, 2-[2-[2-Methoxy-3-(3,7,11,15-tetramethylhexadecyloxy)propyloxy]ethoxy]ethyltrimethylammonium chloride] | 0 | 224 | – | – | – | – | –
lysolecithin | – | – | – | – | – | – | macrophage activation (macrophages): cannot activate macrophages
CCCCCCCCCCCCCCCCCCOCC(COCCOCC[N+](C)(C)C)OCC1CO1 (stereo not shown) [Example 47, 2-[2-[2-(2,3-Epoxypropyloxy)-3-(octadecyloxy)propyloxy]ethoxy]ethyltrimethylammonium chloride] | 20 | 237 | – | – | – | – | –
CC(=O)CC(=O)OC(COCCCCCCCCCCCCC1CCCCC1)COCCOCC[N+](C)(C)C (stereo not shown) [Example 26, 2-[2-[2-Acetoacetyloxy-3-(12-cyclohexyl)dodecyloxypropyloxy]ethoxy]ethyltrimethylammonium chloride] | 0 | 295 | – | – | – | – | Inhibition ratio (1-T/C) (%) (Sarcoma 180 cells [2]): 60%
CCCCCCCCCCCCCCCCCCOCC(COCC[N+](C)(C)C)OC (stereo not shown) [Compound Va, reference compound] | – | – | 1/5 | 241 | 27 | 0 | inhibition at 0.3 µM [4]: 0%
CCCCCCCCCCCCCCCCCCOCC(COCCOCC[N+](C)(C)C)OC (stereo not shown) [Example 8, 2-[2-[2-Methoxy-3-(octadecyloxy)propyloxy]ethoxy]ethyltrimethylammonium chloride] | – | – | 5/5 | – | 100 | 38 | Inhibition ratio (1-T/C) (%) (Sarcoma 180 cells [5]; 0.03 mg/mouse i.v. 9 times): 65%; Inhibition ratio (1-T/C) (%) (Sarcoma 180 cells [5]; 0.3 mg/mouse i.v. 9 times): 65%; No. of survivors/No. of mice tested [6, 11]: 2/5; Life-span prolongation ratio (T/C, %) [6, 11]: 144%; No. of survivors/No. of mice tested [6, 12]: 3/5; Life-span prolongation ratio (T/C, %) [6, 12]: 315%; No. of survivors/No. of mice tested [7]: 5/5; inhibition at 0.3 µM [4]: 18%; Weight of tumor (Sarcoma 180 cells [8]): 0.35 ± 0.04 g; Inhibition ratio (%) (Sarcoma 180 cells [8]): 75%
CCCCCCCCCCCCCCCCCCOCC(COCCOCC[N+](C)(C)C)OC(=S)NC (stereo not shown) [Example 42, 2-[2-[2-(Methylthiocarbamoyloxy)-3-(octadecyloxy)propyloxy]ethoxy]ethyltrimethylammonium chloride] | 0 | 340 | – | – | – | – | –
CCCCCCCCCCCCCCCCCCOCC(COCCOCC[N+](C)(C)C)OC(=O)CC(C)=O.[Cl-] (stereo not shown) [Example 12, 2-[2-[2-(Acetoacetyloxy)-3-(octadecyloxy)propyloxy]ethoxy]ethyltrimethylammonium chloride] | 40 | 292 | – | – | – | – | No. of survivors/No. of mice tested [6, 12]: 3/5; Life-span prolongation ratio (T/C, %) [6, 12]: 126%; No. of survivors/No. of mice tested ([6]; 0.5 mg/mouse once a day for 4 days): 5/5
CCCCCCCCCCCCCCCCCCOCC(COCCOCC[N+](C)(C)C)OCC(C)=O (stereo not shown) [Example 29, 2-[2-[3-(Octadecyloxy)-2-(2-oxopropyloxy)propyloxy]ethoxy]ethyltrimethylammonium chloride] | 60 | 220 | – | – | – | – | –
COC(COCCCCCCCCCCCC(F)(F)C(F)(F)C(F)(F)C(F)(F)C(F)(F)C(F)(F)C(F)(F)C(F)(F)F)COCCOCC[N+](C)(C)C (stereo not shown) [Example 51, 2-[2-[2-Methoxy-3-(12,12,13,13,14,14,15,15,16,16, 17,17,18,18,19,19,19-heptadecafluorononadecyloxy)propyloxy)ethoxy]ethyltrimethylammonium chloride] | – | – | – | – | – | – | response vs control in vivo at 0.33 mg (Sarcoma 180 cells [1]; Mus musculus): 295%; responders at 0.33 mg (Sarcoma 180 cells [1]; Mus musculus, read-out: No. of survivors/No. of mice tested): 0%
CNC(=S)OC(COCCCCCCCCCCCCC1CCCCC1)COCCOCC[N+](C)(C)C (stereo not shown) [Example 43, 2-[2-[3-(12-Cyclohexyl)dodecyloxy-2-N-methylthiocarbamoyloxypropyloxy]ethoxy]ethyltrimethylammonium chloride] | 20 | 323 | – | – | – | – | –
CCCCCCCCCCCCCCCCCCOCC(COCCOCCOCC[N+](C)(C)C)OC(=O)CC(C)=O (stereo not shown) [Example 15, 2-[2-[2-[2-(Acetoacetyloxy)-3-(octadecyloxy)propyloxy]ethoxy]ethoxy]ethyltrimethylammonium chloride] | – | – | 4/5 | 291 | 100 | 43 | –
CCCCCCCCCCCCCCCCCCOCC(COCCOCCOCC[N+](C)(C)C)OC (stereo not shown) [Example 9, 2-[2-[2-[2-Methoxy-3-(octadecyloxy)propyloxy]ethoxy]ethoxy]ethyltrimethylammonium chloride] | – | – | 1/5 | 247 | 100 | 66 | inhibition at 0.3 µM [4]: 3%
CCCCCCCCCCCCCCCCCCOCC(COCCCC[N+](C)(C)C)OC (stereo not shown) [Compound Vb, reference compound] | – | – | 0/5 | 291 | 97 | 5 | inhibition at 0.3 µM [4]: 0%
COC(COCCCCCCCCCCCCC1CCCCC1)COCCOCC[N+](C)(C)C (stereo not shown) [Example 24, 2-[2-[3-(12-Cyclohexyl)dodecyloxy-2-methoxypropyloxy]ethoxy]ethyltrimethylammonium chloride] | 0 | 302 | 3/5 | 262 | 100 | 63 | Inhibition ratio (1-T/C) (%) (Sarcoma 180 cells [2]): 78%; Weight of tumor (Sarcoma 180 cells [8]): 0.35 ± 0.15 g; Inhibition ratio (%) (Sarcoma 180 cells [8]): 75%
C[N+](C)(C)CCOCCOCC(COCCCCCCCCCCCCC1CCCCC1)OCC(=O)[O-] (stereo not shown) [Example 66, 3-(12-Cyclohexyldodecyloxy)methyl-10-trimethylammonio-2,5,8-trioxadecane carboxylate] | 0 | 235 | – | – | – | – | –
